{"source": "patent US9359378B2", "about": "“Substituted oxazolo[3,4-a]pyrazines as pharmaceutcals” (BIOLAB SANUS FARMACÊUTICA LTDA., priority 2014, dated 2016)", "tested_on": "rabbit's corpus cavernosum", "test": "Relaxing effect in isolated rabbit's corpus cavernosum strips pre-contracted with phenylephrine (isometric tension)", "parameters": "species or system New Zealand White rabbits", "conditions": "strips pre-contracted with 1 μM PE; FIGS. 12 and 13", "method": "For this study, New Zealand White rabbits (2 to 3.5 kg) were used to obtain penile tissue which was excised and transferred to a chilled Krebs solution. For this study, we used cavernosum strips (CC) of the penile tissue of New Zealand White rabbits. The strips were mounted in 10 ml tissue incubation chambers containing Krebs solution at 37° C., pH occurring between 7.3 and 7.5; continuously bubbled with a mixture of 95% oxygen (O2) and 5% carbon dioxide (CO2). An initial tension of 10 mN were applied on the tissues, followed by a 60 minute stabilization period. Changes in tension (isometric force) were obtained using isometric transducers (ADInstruments, Australia) and recorded in a data acquisition system PowerLab 4/30 (Chart Software, version 7.3.7, ADInstruments, MA, USA for BL-230 and version 7.0 ADInstruments, MA for the BL-236). […] Cumulative curve responses to the concentration of BL-230 compounds and tadalafil (0.001 to 10 μM) were obtained in the pre-contracted rabbit corpus cavernosum strips with 1 μM PE.", "data": [{"smiles": "CN1CC(=O)N2[C@H](c3ccc4c(c3)OCO4)c3[nH]c4ccccc4c3C[C@@H]2C1=O", "note": "[tadalafil, reference compound]", "values": [{"measurement": "percentage of relaxation in rabbit's corpus cavernosum", "result": "around 100%"}]}]}
